According to patent US20240294569A1, “MODULATORS OF SORTILIN ACTIVITY” (Insusense ApS, priority 2021, published 2024):
Peptide text beside a SMILES is read from it.

Biological target: T1, hSortilin (Homo sapiens, UniProt Q99523)
T1 sequence (Q99523 78-831): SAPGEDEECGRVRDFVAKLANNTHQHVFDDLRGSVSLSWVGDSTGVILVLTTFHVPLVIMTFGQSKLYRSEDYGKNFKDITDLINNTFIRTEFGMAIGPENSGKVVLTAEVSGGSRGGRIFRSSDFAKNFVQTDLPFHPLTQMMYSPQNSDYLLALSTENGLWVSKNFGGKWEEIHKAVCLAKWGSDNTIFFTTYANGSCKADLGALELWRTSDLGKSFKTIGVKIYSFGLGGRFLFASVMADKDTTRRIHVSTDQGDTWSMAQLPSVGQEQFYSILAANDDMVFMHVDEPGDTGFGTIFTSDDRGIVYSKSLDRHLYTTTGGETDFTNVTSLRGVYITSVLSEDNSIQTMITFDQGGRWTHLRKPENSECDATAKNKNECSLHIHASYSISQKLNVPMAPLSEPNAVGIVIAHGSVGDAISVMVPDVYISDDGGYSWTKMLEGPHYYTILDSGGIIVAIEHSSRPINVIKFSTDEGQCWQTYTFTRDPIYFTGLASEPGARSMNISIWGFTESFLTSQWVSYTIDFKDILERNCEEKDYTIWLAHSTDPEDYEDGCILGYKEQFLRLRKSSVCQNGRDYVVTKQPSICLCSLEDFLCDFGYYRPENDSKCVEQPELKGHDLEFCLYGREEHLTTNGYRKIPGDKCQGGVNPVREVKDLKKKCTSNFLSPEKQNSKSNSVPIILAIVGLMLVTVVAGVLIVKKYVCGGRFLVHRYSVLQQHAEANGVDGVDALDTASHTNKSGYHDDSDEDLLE
Assay: Neurotensin scintillation proximity assay (displacement of [3H]-neurotensin binding)
Settings: displacement of 5 nM [3H]-neurotensin from 150 nM 6his-Sortilin; average of at least 2 determinations; read-out: IC50 [3H]Neurotensin SPA
Experimental: The data of exemplified compounds of the invention tested in a Neurotensin (NTS) scintillation proximity assay (SPA). NTS, which is a 13 amino acid neuropeptide, is a sortilin ligand. The IC50 is a measure of the amount of the compound required to inhibit the binding of NTS to sortilin by 50%.
Compound affinity was determined by measuring the displacement of [^3H]-neurotensin binding to hSortilin in SPA format. Total volume of 40 μl in 50 mM HEPES pH 7.4 assay buffer containing 100 mM NaCl, 2.0 mM CaCl2, 0.1% BSA and 0.1% Tween-20. Compound pre-incubation for 30 minutes at room temperature with 150 nM of 6his-Sortilin before 5 nM [3H]-Neurotensin and Ni chelate imaging beads (Perkin Elmer) were added, after 6 hours the plate was read on a ViewLux with 360 s exposure time. Dose-response evaluation of compounds was performed with 8 concentrations of drugs (covering 3 decades). IC50 values were calculated by nonlinear regression using the sigmoid concentration-response (variable slope) using CDD Vault software. All values reported are average of at least 2 determinations.

Compound	IC50 [µM]
CC(C)(C)CC[C@H](NC(=O)[C@H](Cc1ccccn1)NC(=O)[C@H](Cc1ccc(O)cc1)NC(=O)[C@@H]1CCCN1)C(=O)O [Example 5, (S)-2-((S)-2-((S)-3-(4-Hydroxyphenyl)-2-((S)-pyrrolidine-2-carboxamido)propanamido)-3-(pyridin-2-yl)propanamido)-5,5-dimethylhexanoic acid] (HELM PEPTIDE1{P.Y.[O=C([C@H](Cc1ccccn1)N[*:1])[*:2]].[CC(C)(C)CC[C@H](N[*:1])C(=O)O]}$$$$V2.0)	0.27
CC[C@H](C)[C@H](NC(=O)[C@H](Cc1ccc(O)cc1)NC(C)=O)C(=O)N[C@@H](CCC(C)(C)C)C(=O)O [Example 28, (S)-2-((2S,3S)-2-((S)-2-Acetamido-3-(4-hydroxyphenyl)propanamido)-3-methylpentanamido)-5,5-dimethylhexanoic acid]	0.19
CC(C)(C)CC[C@H](NC(=O)[C@H](Cc1ccncc1)NC(=O)[C@H](Cc1ccc(O)cc1)NC(=O)[C@@H]1CCCN1)C(=O)O [Example 8, (S)-2-((S)-2-((S)-3-(4-Hydroxyphenyl)-2-((S)-pyrrolidine-2-carboxamido)propan amido)-3-(pyridin-4-yl)propanamido)-5,5-dimethylhexanoic acid] (HELM PEPTIDE1{P.Y.[O=C([C@H](Cc1ccncc1)N[*:1])[*:2]].[CC(C)(C)CC[C@H](N[*:1])C(=O)O]}$$$$V2.0)	0.2
CC[C@H](C)[C@H](NC(=O)[C@H](Cc1ccc(O)cc1)NC(=O)[C@H]1COCCN1)C(=O)N[C@@H](CCC(C)(C)C)C(=O)O [Example 23, (S)-2-((2S,3S)-2-((S)-3-(4-Hydroxyphenyl)-2-((R)-morpholine-3-carboxamido)propan amido)-3-methylpentanamido)-5,5-dimethylhexanoic acid]	0.1
CC[C@H](C)[C@H](NC(=O)[C@H](C)NC(=O)[C@@H]1CCCN1)C(=O)N[C@@H](CCC(C)(C)C)C(=O)O [Example 17, (2S)-5,5-Dimethyl-2-((3S)-3-methyl-2-((S)-2-((S)-pyrrolidine-2-carboxamido)propan amido)pentanamido) hexanoic acid] (HELM PEPTIDE1{P.A.I.[CC(C)(C)CC[C@H](N[*:1])C(=O)O]}$$$$V2.0)	0.07
CC[C@H](C)[C@H](NC(=O)[C@H](Cc1ccc(O)cc1)NC(=O)[C@H]1CNCCO1)C(=O)N[C@@H](CCC(C)(C)C)C(=O)O [Example 30, (S)-2-((2S,3S)-2-((S)-3-(4-Hydroxyphenyl)-2-((R)-morpholine-2-carboxamido)propan amido)-3-methylpentanamido)-5,5-dimethylhexanoic acid]	0.09
CC[C@H](C)[C@H](NC(=O)[C@H](Cc1ccc(O)cc1)NC(=O)[C@H]1CNCCN1)C(=O)N[C@@H](CCC(C)(C)C)C(=O)O [Example 18, (S)-2-((2S,3S)-2-((S)-3-(4-Hydroxyphenyl)-2-((R)-piperazine-2-carboxamido)propan amido)-3-methylpentanamido)-5,5-dimethylhexanoic acid] (HELM PEPTIDE1{[O=C([C@H]1CNCCN1)[*:2]].Y.I.[CC(C)(C)CC[C@H](N[*:1])C(=O)O]}$$$$V2.0)	0.11
CC[C@H](C)[C@H](NC(=O)[C@H](Cc1ccc(O)cc1)NC(C)=O)C(=O)N[C@@H](CCC(F)(F)F)C(=O)O [Example 3, (S)-2-((2S,3S)-2-((S)-2-Acetamido-3-(4-hydroxyphenyl)propanamido)-3-methylpentanamido)-5,5,5-trifluoropentanoic acid]	1.11
CC(C)(C)CC[C@H](NC(=O)[C@H](Cc1cscn1)NC(=O)[C@H](CC(N)=O)NC(=O)[C@@H]1CCCN1)C(=O)O [Example 10, (S)-2-((S)-2-((S)-4-Amino-4-oxo-2-((S)-pyrrolidine-2-carboxamido)butan-amido)-3-(thiazol-4-yl)propanamido)-5,5-dimethylhexanoic acid] (HELM PEPTIDE1{P.N.[O=C([C@H](Cc1cscn1)N[*:1])[*:2]].[CC(C)(C)CC[C@H](N[*:1])C(=O)O]}$$$$V2.0)	0.09
CC[C@H](C)[C@H](NC(=O)[C@H](Cc1ccc(O)cc1)NC(=O)[C@@H]1CNCCO1)C(=O)N[C@@H](CCC(C)(C)C)C(=O)O [Example 22, (S)-2-((2S,3S)-2-((S)-3-(4-Hydroxyphenyl)-2-((S)-morpholine-2-carboxamido)propan amido)-3-methylpentanamido)-5,5-dimethylhexanoic acid]	0.07
CC[C@H](C)[C@H](NC(=O)[C@H](Cc1ccc(O)cc1)NC(=O)[C@H]1CCCO1)C(=O)N[C@@H](CCC(F)(F)F)C(=O)O [Example 2, (2S)-5,5,5-trifluoro-2-[(2S,3S)-2-[(S)-3-(4-hydroxyphenyl)-2-{[(2R)-oxolan-2-yl]formamido}propanamido]-3-methylpentanamido] pentoic acid]	2.86
CC(C)(C)CC[C@H](NC(=O)[C@H](Cc1cscn1)NC(=O)[C@H](CCC(N)=O)NC(=O)[C@@H]1CCCN1)C(=O)O [Example 11, (S)-2-((S)-2-((S)-5-Amino-5-oxo-2-((S)-pyrrolidine-2-carboxamido)pentan amido)-3-(thiazol-4-yl)propanamido)-5,5-dimethylhexanoic acid] (HELM PEPTIDE1{P.Q.[O=C([C@H](Cc1cscn1)N[*:1])[*:2]].[CC(C)(C)CC[C@H](N[*:1])C(=O)O]}$$$$V2.0)	0.06
Cn1cncc1C[C@H](NC(=O)[C@H](Cc1ccc(O)cc1)NC(=O)[C@@H]1CCCN1)C(=O)N[C@@H](CCC(C)(C)C)C(=O)O [Example 32, (S)-2-((S)-2-((S)-3-(4-Hydroxyphenyl)-2-((S)-pyrrolidine-2-carboxamido)propan amido)-3-(1-methyl-1H-imidazol-5-yl)propanamido)-5,5-dimethylhexanoic acid.di-formic acid] (HELM PEPTIDE1{P.Y.[Cn1cncc1C[C@H](N[*:1])C(=O)[*:2]].[CC(C)(C)CC[C@H](N[*:1])C(=O)O]}$$$$V2.0)	0.1
CC(C)(C)CC[C@H](NC(=O)[C@H](Cc1cccnc1)NC(=O)[C@H](Cc1ccc(O)cc1)NC(=O)[C@@H]1CCCN1)C(=O)O [Example 6, (S)-2-((S)-2-((S)-3-(4-Hydroxyphenyl)-2-((S)-pyrrolidine-2-carboxamido)propan amido)-3-(pyridin-3-yl)propanamido)-5,5-dimethylhexanoic acid] (HELM PEPTIDE1{P.Y.[O=C([C@H](Cc1cccnc1)N[*:1])[*:2]].[CC(C)(C)CC[C@H](N[*:1])C(=O)O]}$$$$V2.0)	0.09
CC(C)(C)CC[C@H](NC(=O)[C@H](Cc1cscn1)NC(=O)[C@H](Cc1ccc(O)cc1)NC(=O)[C@@H]1CCCN1)C(=O)O [Example 12, (S)-2-((S)-2-((S)-3-(4-Hydroxyphenyl)-2-((S)-pyrrolidine-2-carboxamido)propan amido)-3-(thiazol-4-yl)propanamido)-5,5-dimethylhexanoic acid] (HELM PEPTIDE1{P.Y.[O=C([C@H](Cc1cscn1)N[*:1])[*:2]].[CC(C)(C)CC[C@H](N[*:1])C(=O)O]}$$$$V2.0)	0.07
CC[C@H](C)[C@H](NC(=O)[C@H](Cc1ccc(O)cc1)NC(=O)[C@@H]1CCCO1)C(=O)N[C@@H](CCC(F)(F)F)C(=O)O [Example 1, (S)-5,5,5-Trifluoro-2-((2S,3S)-2-((S)-3-(4-hydroxyphenyl)-2-((S)-tetrahydrofuran-2-carboxamido)propanamido)-3-methylpentanamido)pentanoic acid]	3.17
CC[C@H](C)[C@H](NC(=O)[C@H](Cc1ccc(O)cc1)NC(=O)[C@@H]1CNCCN1)C(=O)N[C@@H](CCC(C)(C)C)C(=O)O [Example 19, (S)-2-((2S,3S)-2-((S)-3-(4-Hydroxyphenyl)-2-((S)-piperazine-2-carboxamido)propan amido)-3-methylpentanamido)-5,5-dimethylhexanoic acid] (HELM PEPTIDE1{[O=C([C@@H]1CNCCN1)[*:2]].Y.I.[CC(C)(C)CC[C@H](N[*:1])C(=O)O]}$$$$V2.0)	0.1
CC(C)(C)CC[C@H](NC(=O)[C@H](Cc1c[nH]c2ccccc12)NC(=O)[C@H](Cc1ccc(O)cc1)NC(=O)[C@@H]1CCCN1)C(=O)O [Example 14, (S)-2-((S)-2-((S)-3-(4-Hydroxyphenyl)-2-((S)-pyrrolidine-2-carboxamido)propan amido)-3-(1H-indol-3-yl)propanamido)-5,5-dimethylhexanoic acid] (HELM PEPTIDE1{P.Y.W.[CC(C)(C)CC[C@H](N[*:1])C(=O)O]}$$$$V2.0)	0.06
